Assay results reported in patent US6727285B1, “Use of D-arginine and/or L-arginine to protect the amino groups of biological substances from damage, inactivation, or modification by toxic carbonyls and/or dicarbonyls” (priority 1995, dated 2004).
Like-named read-outs stand apart in the source and are kept apart here.

Legend:
bovine serum albumin [1] = assay: Protectant pretreatment against methylglyoxal gel formation of bovine serum albumin, pH adjusted by titration NaOH/HCL (Example 3, Table 6); assay type: biochemical
Experimental: As described in TABLE #6,2 ml. bovine serum albumin 30% solution was added to each of eight 7 ml. glass test tubes. One millimole of guanidine was added to tube #1; no protectant was added to tubes #2, #3, and #4. […] Into test tube #6 was added 1 millimole of L-arginine hydrochloride, the pH was adjusted to 7.40 by micro-drop titration. Into test tube #7 was added 1 millimole of L-arginine hydrochloride, not pH adjusted. Into test tube #8 was added 1 millimole of D-arginine hydrochloride, not pH adjusted. […] After 3 hours the heating unit was turned off reducing the temperature to room temperature, 75 degrees Fahrenheit, to prevent the drying out of the sample and the reaction was allowed to proceed overnight.

bovine serum albumin [2] = molecular target: T1, bovine serum albumin (Bos taurus, UniProt P02769); assay type: biochemical; conditions: for gel formation of albumin samples: pretreated with 1 millimole, 2 ml 30% BSA, 1 millimole methylglyoxal, HEPES buffered, 98.6 F., 217 rpm
T1 construct: HEPES salt, HEPES acid, and bovine serum albumin was obtained from Sigma; purchased Sigma
T1 sequence (P02769 25-607): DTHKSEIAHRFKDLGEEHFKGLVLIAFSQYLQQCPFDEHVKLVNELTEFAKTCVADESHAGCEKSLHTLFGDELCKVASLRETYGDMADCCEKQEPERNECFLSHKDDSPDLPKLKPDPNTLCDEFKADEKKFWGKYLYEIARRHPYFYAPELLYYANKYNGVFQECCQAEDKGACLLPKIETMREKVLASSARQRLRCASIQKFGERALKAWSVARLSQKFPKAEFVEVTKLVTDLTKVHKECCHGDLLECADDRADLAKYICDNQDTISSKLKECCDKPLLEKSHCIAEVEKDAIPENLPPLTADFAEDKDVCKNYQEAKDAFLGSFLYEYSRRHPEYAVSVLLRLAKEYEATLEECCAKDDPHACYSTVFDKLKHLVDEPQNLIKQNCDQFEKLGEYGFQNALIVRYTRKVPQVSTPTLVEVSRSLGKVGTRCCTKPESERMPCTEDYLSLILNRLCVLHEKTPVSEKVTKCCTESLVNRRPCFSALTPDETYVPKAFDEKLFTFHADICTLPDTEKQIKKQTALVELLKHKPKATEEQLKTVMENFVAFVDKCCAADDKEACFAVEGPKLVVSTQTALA
Experimental: The magnetic stirrer was set to 217 rpm. The pH was checked at five minutes.
The pH was constantly monitored as were the color and fluid characteristics of the mixture. […] The end-point was recorded when a visible non-flowing gel formed in the tube and could not be caused to flow when the tube was inverted at 40 degrees below the horizontal for two minutes.

bovine serum albumin [3] = assay: Protectant pretreatment against methylglyoxal cross-linking of HEPES-buffered bovine serum albumin (Example 2, Table 5); assay type: biochemical; conditions: 2 ml 30% BSA, 1 millimole protectant, 1 millimole methylglyoxal
Experimental: As described in TABLE #5, 2 cc of 30% bovine serum albumin was added by glass pipette to each of 6 glass 7 ml. test tubes numbered 1 through 6. 1 millimole of L-arginine hydrochloride in 0.5 ml. of 6 molar HEPES buffer was added to tube #1. 1 millimole of L-arginine hydrochloride in 0.4 ml. of 6 molar HEPES buffer was added to tube #2. 1 millimole D-arginine hydrochloride in 0.5 ml. of 6 molar HEPES buffer was added to tube #3. 1 millimole D-arginine hydrochloride in 0.4 ml. of 6 molar HEPES buffer was added to tube #4. 0.5 ml. of 6 molar HEPES buffer was added to tube #5. 1 millimole of glycocyamine in 0.5 ml. of 6 molar HEPES buffer was added to tube #6.
The pH was measured periodically and observations were made and recorded. At three hours the heating unit was reduced to room temperature, 75 degrees Fahrenheit, to prevent drying and the reaction allowed to proceed.

bovine serum albumin [4] = assay: Blocking of methylglyoxal or glyoxal cross-linking (gel formation) of albumin, inventor's tests; assay type: biochemical; conditions: for gelatin formation of bovine serum albumin when methylglyoxal is added: acidic solution, room temperature, 2 cc BSA pretreated with one millimole; for gelatin formation of bovine serum albumin when methylglyoxal is added / conversion of bovine serum albumin from liquid to gelatin by methylglyoxal: one millimole methylglyoxal; for blocking of the cross-linking of albumin by methylglyoxal or glyoxal: arginines: hydrochloride salts and free base forms; for conversion of bovine serum albumin from liquid to gelatin by methylglyoxal: pH 6.4 to 7.4, room temperature, 75, 80, 83, 90 and 98.6 degrees Fahrenheit, 2 cc 30% BSA pretreated with one millimole; for methylglyoxal-induced gel formation of liquid bovine serum albumin: pretreatment, free base or hydrochloride form
ovalbumin = molecular target: T2, ovalbumin (Gallus gallus, UniProt P01012); assay: Reaction of methylglyoxal with ovalbumin (egg albumin); assay type: biochemical
T2 sequence (P01012 1-386): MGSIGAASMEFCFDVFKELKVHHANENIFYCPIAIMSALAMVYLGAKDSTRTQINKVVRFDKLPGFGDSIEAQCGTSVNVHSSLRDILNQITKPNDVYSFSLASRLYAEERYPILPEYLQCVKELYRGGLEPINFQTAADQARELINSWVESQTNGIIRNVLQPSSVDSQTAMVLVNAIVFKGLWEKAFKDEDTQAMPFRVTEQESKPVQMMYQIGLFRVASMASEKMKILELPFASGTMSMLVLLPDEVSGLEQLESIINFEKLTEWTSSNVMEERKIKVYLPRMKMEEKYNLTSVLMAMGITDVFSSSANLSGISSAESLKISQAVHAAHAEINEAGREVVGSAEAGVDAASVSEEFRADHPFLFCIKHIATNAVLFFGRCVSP

[5] = test system: New Zealand White rabbits made diabetic by streptozotocin; conditions: arginine HCL oral 30 mg/kg/day or i.v. 10 mg/kg/day, radiolabeled methylglyoxal i.v. daily
Experimental: (§1) Group 2: The rabbits of group 2 are fed a diet supplemented with oral D-arginine HCL 30 mg/kg/day (or an appropriate dose which can range from, for example, but not limited to, 1 mg/kg/day to 100 mg/kg/day).
(§2) Group 3: The rabbits of group 3 are fed a diet supplemented with oral L-arginine HCL 30 mg/kg/day (or an appropriate dose which can range from, for example, but not limited to, 1 mg/kg/day to 100 mg/kg/day).
(§3) Group 4: The rabbits of group 4 receive L-arginine HCL by ear vein in 10 cc normal saline at a dose of 10 mg/kg/day (or an appropriate dose which can range from, for example, but not limited to, 1 mg/kg/day to 100 mg/kg/day) for the duration of the experiment.
(§4) Group 5: The rabbits of group 5 receive D-arginine HCL by ear vein in 10 cc normal saline at a dose of 10 mg/kg/day (or an appropriate dose which can range from, for example, but not limited to, 1 mg/kg/day to 100 mg/kg/day) for the duration of the experiment.
(§5) At the end of the experiment, all animals are sacrificed and their kidneys removed, sectioned and examined for gross and microscopic changes, as well as for accumulation of the radiolabel, with special attention to the glomerular basement membrane.

[6] = test system: New Zealand White rabbits made diabetic by streptozotocin; assay: Streptozotocin-diabetic rabbits given i.v. radiolabeled glucose, kidney examination (Example 6); conditions: arginine HCL oral 30 mg/kg/day or i.v. 10 mg/kg/day, radiolabeled glucose i.v. daily
Experimental: as §1, §2, §3, §4, §5

[7] = test system: insulin dependent diabetic; assay: L-arginine hydrochloride in a diabetic patient with painful feet (Example 9); assay type: in vivo, human; conditions: 700 mg twice a day (1,400 mg per day), 120kg, painful feet secondary to vasculopathy and/or neuropathy, within 6 weeks
[8] = test system: non-diabetic animal model; assay: Non-diabetic rabbits challenged with radiolabeled methylglyoxal (Example 7); conditions: otherwise identical to Example 5
[9] = test system: New Zealand White rabbits; conditions: arginine HCL oral 30 mg/kg/day or i.v. 10 mg/kg/day, methylglyoxal i.v. daily
Experimental: as §1, §2, §3, §4

bovine serum albumin [10] = molecular target: T1, bovine serum albumin; assay type: biochemical
Experimental: As described in TABLE #4, 2 cc of 30% bovine serum albumin (BSA) was added by glass pipette (Kimax 1/100) to each of three glass 7 ml. test tubes numbered 1, 2, and 3. 0.4 ml. of 6 molar HEPES buffer was added to tube #1 by glass pipette. 0.5 ml. of 6 molar HEPES buffer was added to test tube #2. 0.3 ml. of 6 molar HEPES buffer was added to tube #3.

[11] = 2 ml BSA + 1 millimole protectant not pH adjusted, 0.18 ml of 40% pH-adjusted methylglyoxal
[12] = 2 ml BSA + 1 millimole protectant, pH adjusted to 7.40-7.46 with NaOH/HCL, 0.18 ml of 40% pH-adjusted methylglyoxal

## Cl.N=C(N)NCCC[C@@H](N)C(=O)O [D-arginine Hydrochloride, D-arginine hydrochloride]
Bovine serum albumin [1]; [11]
  FINAL FORM: LIQUID
  Observation overnight: later; remained liquid overnight;
Bovine serum albumin [1]; [12]
  FINAL FORM: LIQUID
  Observation at 1 hr. 5 min.: brownish, yellow liquid,
  Observation overnight: Remained liquid
Bovine serum albumin [2]
  gel formation of albumin samples: did not gel at any time and remained liquid
Bovine serum albumin [3]; 6 m HEPES 0.4 ml
  FINAL FORM: LIQUID
Bovine serum albumin [3]; 6 m HEPES 0.5 cc/ml
  FINAL FORM: LIQUID

## N=C(N)NCCC[C@@H](N)C(=O)O [D-arginine]
Bovine serum albumin [4]
  binding of methylglyoxal to bovine serum albumin: capable of blocking the binding
  gelatin formation of bovine serum albumin when methylglyoxal is added: prevent gelatin formation
  blocking of the cross-linking of albumin by methylglyoxal or glyoxal: worked consistently
  conversion of bovine serum albumin from liquid to gelatin by methylglyoxal: the albumin remains liquid
  methylglyoxal-induced gel formation of liquid bovine serum albumin: block methylglyoxal-induced gel formation
ovalbumin
  binding of methylglyoxal to egg albumin: capable of blocking the binding
[5]
  accumulation of radiolabeled methylglyoxal in the kidneys compared with the control: reduced or absent
  gross and microscopic changes in the kidney compared to the control: reduced or absent
[6]
  accumulation of radiolabeled glucose metabolites in the kidneys compared with the control: reduced or absent
  gross and microscopic changes in the kidney compared to the control: reduced or absent

## Cl.N=C(N)NCCC[C@H](N)C(=O)O [L-arginine Hydrochloride, L-arginine hydrochloride]
Bovine serum albumin [1]; [11]
  Observation overnight: became viscous overnight;
Bovine serum albumin [1]; [12]
  FINAL FORM: LIQUID
  Observation overnight: later; remained liquid overnight;
Bovine serum albumin [2]
  gel formation of albumin samples: did not gel at any time and remained liquid
Bovine serum albumin [3]; 6 m HEPES 0.4 ml
  FINAL FORM: LIQUID
Bovine serum albumin [3]; 6 m HEPES 0.5 cc/ml
  FINAL FORM: LIQUID
[7]
  pain in both the feet and hands: marked reduction in pain

## N=C(N)NCCC[C@H](N)C(=O)O [L-arginine]
Bovine serum albumin [4]
  binding of methylglyoxal to bovine serum albumin: capable of blocking the binding
  gelatin formation of bovine serum albumin when methylglyoxal is added: prevent gelatin formation
  blocking of the cross-linking of albumin by methylglyoxal or glyoxal: worked consistently
  conversion of bovine serum albumin from liquid to gelatin by methylglyoxal: the albumin remains liquid
  methylglyoxal-induced gel formation of liquid bovine serum albumin: block methylglyoxal-induced gel formation
ovalbumin
  binding of methylglyoxal to egg albumin: capable of blocking the binding
[5]
  accumulation of radiolabeled methylglyoxal in the kidneys compared with the control: reduced or absent
  gross and microscopic changes in the kidney compared to the control: reduced or absent
[6]
  accumulation of radiolabeled glucose metabolites in the kidneys compared with the control: reduced or absent
  gross and microscopic changes in the kidney compared to the control: reduced or absent

## N=C(N)NN [aminoguanidine, reference compound]
Bovine serum albumin [4]
  blocking of the cross-linking of albumin by methylglyoxal or glyoxal: do not block

## N=C(N)NCCC[C@H](N)C(=O)O [arginine, 2-amino-5-guanidovaleric acid]
[8]
  changes caused by methylglyoxal: blocks
[9]
  level of methylglyoxal in the blood: reduces

## NC(=O)NCCC[C@H](N)C(=O)O [citrulline, reference compound]
Bovine serum albumin [4]
  blocking of the cross-linking of albumin by methylglyoxal or glyoxal: do not block

## NCCS [cystieamine, reference compound]
Bovine serum albumin [4]
  blocking of the cross-linking of albumin by methylglyoxal or glyoxal: do not block

## N[C@@H](CSSC[C@H](N)C(=O)O)C(=O)O [cystine, reference compound]
Bovine serum albumin [4]
  blocking of the cross-linking of albumin by methylglyoxal or glyoxal: do not block

## N/N=C(\N)NN [diaminoguanidine, reference compound]
Bovine serum albumin [4]
  blocking of the cross-linking of albumin by methylglyoxal or glyoxal: do not block

## N=C(N)NCC(=O)O [glycocyamine, reference compound]
Bovine serum albumin [4]
  blocking of the cross-linking of albumin by methylglyoxal or glyoxal: do not block

## N=C(N)N [guanidine, reference compound]
Bovine serum albumin [1]; 2 ml BSA, 1 millimole protectant added to BSA, 1 millimole (0.18 ml of 40%) methylglyoxal pH adjusted to 7.40
  FINAL FORM: GEL
Bovine serum albumin [4]
  blocking of the cross-linking of albumin by methylglyoxal or glyoxal: do not block

## CC(=O)C=O [methylglyoxal]
Bovine serum albumin [10]; pH 7.35
  FINAL FORM: GEL
Bovine serum albumin [10]; sample 1: 2 ml 30% BSA + 0.4 cc 6 m HEPES (pH 7.40), 1 millimole methylglyoxal (0.18 ml of 40%, pH not adjusted), no protectant, 98.6° F.
  time after mixing until firm yellow gelatin formed: <5 minutes after mixing
Bovine serum albumin [10]; sample 3: 2 ml 30% BSA + 0.3 cc 6 m HEPES (pH 7.35), 0.20 ml of 40% methylglyoxal buffered to 7.36, counted from the 5-minute pH reading ('33 minutes later')
  time until sudden gelatin formation: pH 7.07 at 5 minutes; 33
Bovine serum albumin [2]; pH 6.4 to 7.4, buffered and unbuffered systems
  product formed with bovine serum albumin: solid gelatin
ovalbumin; 0.2 cc of 40% methylglyoxal, two cc of liquid ovalbumin, within a matter of hours, 1976 unpublished works
  conversion of liquid ovalbumin: from liquid to solid gelatin

## NC(N)=O [urea, reference compound]
Bovine serum albumin [4]
  blocking of the cross-linking of albumin by methylglyoxal or glyoxal: do not block
